Assay results published in PubChem BioAssay AID1996.
Converted amounts (≈) assume the structure as drawn.

Conditions: buffer; pH 7.4; 200.0 µM

SMILES	solubility kinetic
CC1CCCCC1NC(=O)COC(=O)CNC(=O)c1cccc(F)c1 (stereo not given)	51.2 µg/mL (≈ 146 µM)
Cc1[nH]c2ccc(F)cc2c1CCN1C(=O)OC(C)(C)C1(C)O (stereo not given)	> 48.1 µg/mL
O=C(Nc1ccsc1C(=O)O)c1cccc(C(F)(F)F)c1	> 47.3 µg/mL
N[C@@H](Cc1c[nH]c2ccc(O)cc12)C(=O)O	32.6 µg/mL (≈ 148 µM)
Cc1ccc2nc(N3CCN(C)CC3)c(C=O)c(=O)n2c1	41.3 µg/mL (≈ 144 µM)
CSc1sc(C#N)c2c1/C(=N\O)CCC2	1 µg/mL (≈ 4.2 µM)
Cn1c(SCc2cccnc2)nc2c(c1=O)SCC2	> 43.7 µg/mL
CCOC(=O)C1=C(C)NC(=O)CC1c1cc2c(cc1[N+](=O)[O-])OCO2 (stereo not given)	3.3 µg/mL (≈ 9.47 µM)
CSc1ncccc1C(=O)OCC(=O)N1CCN(C(=O)c2ccco2)CC1	> 58.4 µg/mL
Cc1ccc(-c2nc3ncccc3o2)cc1NC(=O)c1ccc([N+](=O)[O-])o1	1.7 µg/mL (≈ 4.67 µM)
C#CC(C)(C)NC(=O)c1ccc(-c2ccccc2F)cc1	< 0.6 µg/mL
O=C1CC(NC(=O)c2ccc(Cl)cc2)C(=O)N1 (stereo not given)	> 37.9 µg/mL
O=C(CN1CCCCCC1)Nc1cc([N+](=O)[O-])ccc1Cl	22.6 µg/mL (≈ 72.5 µM)
CC(NC(=O)CCNC(=O)c1ccco1)c1ccccc1 (stereo not given)	> 42.9 µg/mL
COc1ccc(C)cc1NC(=O)CCNC(=O)c1ccco1	> 45.3 µg/mL
Cc1ccc(N2CC(O)=C(c3ccccc3)C2=N)cc1	> 39.6 µg/mL
CS(=O)(=O)Nc1ccc(Oc2ncccn2)cc1	> 39.8 µg/mL
CCc1nc2ccccc2c(C(=O)OCC(=O)N(C)Cc2ccccc2)c1C	4.9 µg/mL (≈ 13 µM)
CC1CN(c2ccc([N+](=O)[O-])nc2)CC(C)O1 (stereo not given)	> 35.6 µg/mL
O=C(NCCCNC(=O)c1ccco1)c1ccc(Cl)cc1	> 46 µg/mL

SMILES	solubility kinetic
COc1ccccc1/C=N/OC(=O)c1ccc(C)cc1	< 0.6 µg/mL
COc1ccc(CN2CCN(C(=O)c3ccc4c(c3)CCC4)CC2)cc1OC	39.5 µg/mL (≈ 104 µM)
COc1c(C)cccc1C(=O)NCCCNC(=O)c1ccc(C)nc1	46.8 µg/mL (≈ 137 µM)
Cc1ncoc1C(=O)Nc1ncc([N+](=O)[O-])s1	> 38.1 µg/mL
Cc1ccnc(NC2CCCCC2)c1	25.3 µg/mL (≈ 133 µM)
COc1ccccc1NC(=O)N1CCN(c2ccnc3cc(Cl)ccc23)CC1	18.5 µg/mL (≈ 46.6 µM)
Cc1csc(NC(=O)CSc2ccc([N+](=O)[O-])cn2)n1	33.8 µg/mL (≈ 109 µM)
COC(=O)c1c(N)sc(C(=O)NCCc2ccccc2)c1C	> 47.8 µg/mL
COc1ccccc1NC(=O)CC1CCCC1	> 35 µg/mL
Clc1ccc(-c2noc(CN3CCOCC3)n2)cc1	> 42 µg/mL
Cc1ccc2oc(Nc3nc(C)c(C)c(C)n3)nc2c1	2.4 µg/mL (≈ 8.94 µM)
Cc1cc(NC(=O)c2cccc([N+](=O)[O-])c2)no1	< 0.2 µg/mL
CC(=O)N(Cc1ccccc1)Cc1nc2sc(C)c(C)c2c(=O)[nH]1	47.5 µg/mL (≈ 139 µM)
COc1ccc2cc(-c3ccon3)ccc2c1	< 0.5 µg/mL
Cc1ccc(S(=O)(=O)NCc2csc(C)n2)cc1	> 42.4 µg/mL
COc1ccc(C(=O)N2CCN(CCc3ccccn3)CC2)cc1.Cl	> 54.3 µg/mL
COc1cc2ccccc2cc1C(=O)NC1CCCCC1	25.3 µg/mL (≈ 89.3 µM)
CCN(CC)Cc1c(O)ccc2occ(C(=O)c3ccccc3)c12	37.7 µg/mL (≈ 117 µM)
CN1CCN/C1=C(/C(Cl)=C(Cl)Cl)[N+](=O)[O-]	> 40.9 µg/mL
Oc1ccccc1-c1cncn1Cc1ccccc1	11.4 µg/mL (≈ 45.5 µM)

SMILES	solubility kinetic
O=S(=O)(NCc1ccccn1)c1cc(Cl)ccc1Cl	> 47.6 µg/mL
O=C(O)C1C2CCC(C2)C1C(=O)NCCc1ccccc1 (stereo not given)	42.9 µg/mL (≈ 149 µM)
NC(=O)C1c2ccccc2Oc2ccccc21	24.8 µg/mL (≈ 110 µM)
COc1ccc(NC(=S)Nc2ccccc2SC)c(OC)c1	47.5 µg/mL (≈ 142 µM)
Cc1ccc(-n2c(C)c(C)c3c(NCCCO)ncnc32)cc1	> 46.6 µg/mL
O=C1CNC(=S)N1c1nc2ccccc2s1	31.6 µg/mL (≈ 127 µM)
O=C(Cc1ccc(Br)cc1)OCC(=O)c1ccc[nH]1	10.3 µg/mL (≈ 32 µM)
O=C(CNc1ccccc1)Nc1cccc2ccccc12	3.4 µg/mL (≈ 12.3 µM)
O=C(COC(=O)c1cc(Cl)nc(Cl)c1)NC1CCCCCC1	5.9 µg/mL (≈ 17.1 µM)
COc1cc(C)nc(-n2nc(C)cc2OC)n1	> 35.1 µg/mL
Cn1c(=O)c2c(nc(SCCN3CCOCC3)n2C)n(C)c1=O	> 50.9 µg/mL
COc1cccc(C(=O)NC2CC3CCC(C2)N3Cc2ccccc2)c1 (stereo not given)	52.2 µg/mL (≈ 149 µM)
CCOc1ncccc1C(=O)NCCCSc1ccccc1	34.2 µg/mL (≈ 108 µM)
COc1ccc([N+](=O)[O-])cc1NC(=O)CCC(=O)c1cccs1	3.8 µg/mL (≈ 11.4 µM)
CC1(c2ccc3ccccc3c2)NC(=O)NC1=O (stereo not given)	29.3 µg/mL (≈ 122 µM)
Cn1nccc1C(=O)OCC(=O)Nc1cccc(Cl)c1	> 44.1 µg/mL
O=C(C[n+]1ccc(/C=N/O)cc1)NCc1ccccc1.[Cl-]	41.3 µg/mL
NS(=O)(=O)c1ccc(CNC(=S)NC(=O)c2ccco2)cc1	> 50.9 µg/mL
COc1ccccc1/C=C1\C(=O)NC(=S)N(c2ccccc2)C1=O	> 50.8 µg/mL
CCCCN(CC)S(=O)(=O)c1ccc2c(c1)n(C)c(=O)c(=O)n2C	2.8 µg/mL (≈ 7.92 µM)
